This passage reports tumor growth results from patent US20230330112A1, “COMPOSITION AND TREATMENT FOR CANCER WITH MUTATIONS” (BRIDGE BIOTHERAPEUTICS, INC., priority 2022, published 2023).

The test system of assay [1] is Ba/F3 EGFR 19Del/C797S xenograft. Briefly: Ba/F3 EGFR 19Del/C797S xenograft study. The assay is classed as in vivo, mouse. To be noted: even at 25 mg/kg. How it is done:
(§1) For Ba/F3 EGFR 19Del/C797S and EGFR 19Del/T790M/C797S xenografts models, each mouse was inoculated subcutaneously at the right flank with cells (0.5×10^6) in 0.1 mL of PBS supplemented with BD Matrigel (1:1) for tumor development. The animals were randomized, and treatment was started when the average tumor volume reached 150-180 mm^3 for the efficacy study.
(§2) Tumor volumes were measured twice weekly in two dimensions using a caliper, and the volume was expressed in mm^3 using the formula: volume=0.5 a×b^2 where a and b are the long and short diameters of the tumor, respectively. The tumor sizes were then used for the calculations of T/C (treatment/control) values. The tumor volume was used for calculation of tumor growth index (TGI) of each group according to the following formula: TGI (%)=[1-(Tti-Tt0)/(Vci-Vc0)]×100. The bodyweight of mice was measured daily for the dosing phase, and the relative change of bodyweight (RCBW) of each mouse according to the following formula: […]

For assay [2], the system named is Ba/F3 EGFR 19Del/T790M/C797S xenografts. Put plainly: Ba/F3 EGFR 19Del/T790M/C797S xenograft study. The class given is in vivo, mouse. To be noted: even at 25 mg/kg. As for the experimental part: as §1, §2

Regarding `C=CC(=O)Nc1cc(Nc2nccc(-c3cn(C)c4ccccc34)n2)c(OC)cc1N(C)CCN(C)C` [osimertinib, reference compound], the tumor growth result in assay [1] and in assay [2] was “did not block the tumor growth” throughout.
